Experimental findings from patent US20070105864A1, “Methods for inhibiting protein kinases” (Schering Corporation, priority 2005, published 2007) are described below.

Where two headings read alike, the source gives them in different places.

The target in one test is T1, recombinant His-CHK1 (Homo sapiens, UniProt O14757).
T1 construct: His-CHK1, In House Lot P976, MW ˜30 KDa, stored at −80 °C; fused on or other part: His tag
T1 sequence (O14757 1-265 limits assumed): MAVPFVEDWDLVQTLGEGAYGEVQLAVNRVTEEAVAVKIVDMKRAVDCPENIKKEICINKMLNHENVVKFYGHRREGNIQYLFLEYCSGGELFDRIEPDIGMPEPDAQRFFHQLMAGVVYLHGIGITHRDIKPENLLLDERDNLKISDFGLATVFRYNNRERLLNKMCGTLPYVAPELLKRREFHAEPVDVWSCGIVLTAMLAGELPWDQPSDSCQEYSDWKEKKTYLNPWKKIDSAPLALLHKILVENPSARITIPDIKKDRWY
The experiment in a line: CHK1 SPA Assay. The following applies: read-out: CHK-1 IC50. In kind it is biochemical. As to the method:
An in vitro assay was developed that utilizes recombinant His-CHK1 expressed in the baculovirus expression system as an enzyme source and a biotinylated peptide based on CDC25C as substrate (biotin-[…]).
1) CDC25C Ser 216 C-term Biotinylated peptide substrate (25 mg), stored at −20 °C, Custom Synthesis by Research Genetics: biotin-[…] 2595.4 MW
2) His-CHK1 In House lot P976, 235 ug/mL, stored at −80 °C.
1) Kinase Buffer: 50 mM Tris pH 8.0; 10 mM MgCl2; 1 mM DTT
2) His-CHK1, In House Lot P976, MW ˜30 KDa, stored at −80 °C. […] For 1 plate (100 r×n): dilute 8 μL of 235 μg/mL (7.83 uM) stock in 2 mL Kinase Buffer. This makes a 31 nM mixture. Add 20 μL/well. This makes a final reaction concentration of 6 nM.
3) CDC25C Biotinylated peptide.
Dilute CDC25C to 1 mg/mL (385 uM) stock and store at −20° C. For 1 plate (100 r×n): dilute 10 1L of 1 mg/mL peptide stock in 2 ml Kinase Buffer. This gives a 1.925 μM mix. Add 20 1L/r×n. This makes a final reaction concentration of 385 nM.
For 1 plate (100 r×n): dilute 10 μL of 1 mM ATP (cold) stock and 2 uL fresh P33-ATP (20 μCi) in 5 ml Kinase Buffer. This gives a 2 μM ATP (cold) solution; add 50 μl/well to start the reaction. Final volume is 100 μl/r×n so the final reaction concentrations will be 1 μM ATP (cold) and 0.2 uCi/r×n.
For 1 plate add: To 10 mL Wash Buffer 2 (2M NaCl 1% H3PO4): 1 mL SPA bead slurry (50 mg); Add 100 μL/well
6) Wash buffer 1: 2 M NaCl
7) Wash buffer 2: 2 M NaCl, 1% H3PO4
Dispense 10 μl/r×n to appropriate wells. Add 10 μL 10% DMSO to positive (CHK1+CDC25C+ATP) and negative (CHK1+ATP only) control wells. 2) Thaw enzyme on ice—dilute enzyme to proper concentration in kinase buffer (see Reaction Mixtures) and dispense 20 μl to each well. 3) Thaw the Biotinylated substrate on ice and dilute in kinase buffer (see Reaction Mixtures). Add 20 μL/well except to negative control wells. Instead, add 20 uL Kinase Buffer to these wells. 4) Dilute ATP (cold) and P33-ATP in kinase buffer (see Reaction Mixtures). Add 50 μL/well to start the reaction. 5) Allow the reaction to run for 2 hours at room temperature. 6) Stop reaction by adding 100 uL of the SPA beads/stop solution (see Reaction Mixtures) and leave to incubate for 15 minutes before harvest 7) Place a blank Packard GF/B filter plate into the vacuum filter device (Packard plate harvester) and aspirate […] water through to wet the system. 8) Take out the blank and put in the Packard GF/B filter plate. 9) Aspirate the reaction through the filter plate. 10) Wash: 200 ml each wash; 1× with 2M NaCl; 1× with 2M NaCl/1% H3PO4 11) Allow filter plate to dry 15 min. 12) Put TopSeal-A adhesive on top of filter plate. 13) Run filter plate in Top Count
Settings: • Data mode: CPM • Radio nuclide: Manual SPA:P33 • Scintillator: Liq/plast • Energy Range: Low
(§1) IC50 DETERMINATIONS: Dose-response curves were plotted from inhibition data generated, each in duplicate, from 8 point serial dilutions of inhibitory compounds. Concentration of compound was plotted against % kinase activity, calculated by CPM of treated samples divided by CPM of untreated samples. To generate IC50 values, the dose-response curves were then fitted to a standard sigmoidal curve and IC50 values were derived by nonlinear regression analysis.

Another test deals with T2, Cyclin E/CDK2 (Homo sapiens, UniProt P24941).
T2 construct: made in house; host or cells: SF9 cells (baculovirus co-infection)
Description: CDK2 Assay (Cyclin E/CDK2 in vitro kinase assay). In kind it is biochemical.
Text: BACULOVIRUS CONSTRUCTIONS: Cyclin E was cloned into pVL1393 (Pharmingen, La Jolla, Calif.) by PCR, with the addition of 5 histidine residues at the amino-terminal end to allow purification on nickel resin. The expressed protein was approximately 45 kDa. CDK2 was cloned into pVL1393 by PCR, with the addition of a haemaglutinin epitope tag at the carboxy-terminal end (YDVPDYAS). The expressed protein was approximately 34 kDa in size.
ENZYME PRODUCTION: Recombinant baculoviruses expressing cyclin E and CDK2 were co-infected into SF9 cells at an equal multiplicity of infection (MOI=5), for 48 hrs. Cells were harvested by centrifugation at 1000 RPM for 10 minutes, then pellets lysed on ice for 30 minutes in five times the pellet volume of lysis buffer containing 50 mM Tris pH 8.0, 1 50 mM NaCl, 1% NP40, 1 mM DTT and protease inhibitors (Roche Diagnostics GmbH, Mannheim, Germany). Lysates were spun down at 15000 RPM for 10 minutes and the supernatant retained. 5 ml of nickel beads (for one liter of SF9 cells) were washed three times in lysis buffer (Qiagen GmbH, Germany). Imidazole was added to the baculovirus supernatant to a final concentration of 20 mM, then incubated with the nickel beads for 45 minutes at 4° C. Proteins were eluted with lysis buffer containing 250 mM imidazole. Eluate was dialyzed overnight in 2 liters of kinase buffer containing 50 mM Tris pH 8.0, 1 mM DTT, 10 mM MgCl2, 100 uM sodium orthovanadate and 20% glycerol. Enzyme was stored in aliquots at −70° C.
IN VITRO KINASE ASSAY: Cyclin E/CDK2 kinase assays were performed in low protein binding 96-well plates (Corning Inc, Corning, N.Y.). Enzyme was diluted to a final concentration of 50 μg/ml in kinase buffer containing 50 mM Tris pH 8.0, 10 mM MgCl2, 1 mM DTT, and 0.1 mM sodium orthovanadate. The substrate used in these reactions was a biotinylated peptide derived from Histone H1 (from Amersham, UK). The substrate was thawed on ice and diluted to 2 μM in kinase buffer. Compounds were diluted in 10% DMSO to desirable concentrations. For each kinase reaction, 20 μl of the 50 µg/ml enzyme solution (1 μg of enzyme) and 20 μl of the 2 μM substrate solution were mixed, then combined with 10 μl of diluted compound in each well for testing. The kinase reaction was started by addition of 50 μl of 2 μM ATP and 0.1 μCi of 33P-ATP (from Amersham, UK). The reaction was allowed to run for 1 hour at room temperature. The reaction was stopped by adding 200 μl of stop buffer containing 0.1% Triton X-100, 1 mM ATP, 5 mM EDTA, and 5 mg/ml streptavidine coated SPA beads (from Amersham, UK) for 15 minutes. The SPA beads were then captured onto a 96-well GF/B filter plate (Packard/Perkin Elmer Life Sciences) using a Filtermate universal harvester (Packard/Perkin Elmer Life Sciences.). Non-specific signals were eliminated by washing the beads twice with 2M NaCl then twice with 2 M NaCl with 1% phosphoric acid. The radioactive signal was then measured using a TopCount 96 well liquid scintillation counter (from Packard/Perkin Elmer Life Sciences).
as §1

As for `Cn1cc(-c2cnc3c(Nc4ccc5ncccc5c4)nccn23)cn1`, the IC50 (commonly the concentration that inhibits the measured activity by half) on recombinant His-CHK1 worked out at 492 nM.
For the molecule `Cc1cc(Nc2nccn3c(-c4cnn(C)c4)cnc23)sn1`, at recombinant His-CHK1, the IC50 is 54 nM.
Take `CNCCc1cn2c(-c3cnn(C)c3)cnc2c(Nc2cc(C)ns2)n1`: the IC50 on Cyclin E/CDK2 (read-out: CDK2 IC50) turned out to be 11400 nM; at recombinant His-CHK1, 13 nM.
On to `Cc1cc(Nc2nc(CCN)cn3c(-c4cnn(C)c4)cnc23)sn1`, for which the IC50 was 5940 nM at Cyclin E/CDK2 (read-out: CDK2 IC50) and 7 nM on recombinant His-CHK1.
The like results for `Cn1cc(-c2cnc3c(Nc4cc(C5CCNCC5)ns4)nccn23)cn1` were, in that order, 18100 nM and 31 nM.
Take `Cn1cc(-c2cnc3c(Nc4ccc(-n5ccnc5)cc4)nc(C4=CCNCC4)cn23)cn1`: the IC50 against Cyclin E/CDK2 (CDK2 IC50) came to 19400 nM; at recombinant His-CHK1 it was 181 nM.
Take `Cc1cc(Nc2nc(C3=CCCNC3)cn3c(-c4cnn(C)c4)cnc23)sn1`: the IC50 came out at 11000 nM on Cyclin E/CDK2 (read-out: CDK2 IC50) and 14 nM on recombinant His-CHK1.
On the same counts, the results for `Cc1cc(Nc2nc(C3CCCNC3)cn3c(-c4cnn(C)c4)cnc23)sn1` (stereo not drawn) are 1100 nM and 13 nM.
Take `Cn1cc(-c2cnc3c(Nc4sncc4C4CCCNC4)nccn23)cn1` (stereo not drawn): the IC50 on Cyclin E/CDK2 (read-out: CDK2 IC50) came out at 21800 nM; on recombinant His-CHK1 it was 18 nM.
In the case of `Cn1cc(-c2cnc3c(Nc4sncc4C4CCNC4)nccn23)cn1` (stereo not drawn), the IC50 at recombinant His-CHK1 came to 23 nM.
In the case of `Cc1cnsc1Nc1nc(CCCN)cn2c(-c3cnn(C)c3)cnc12`, the IC50 on Cyclin E/CDK2 (read-out: CDK2 IC50) was found to be 1910 nM; at recombinant His-CHK1, 5 nM.
On the same counts, the results for `CNCCCc1cn2c(-c3cnn(C)c3)cnc2c(Nc2sncc2C)n1` are 5770 nM and 8 nM.
Consider `Cn1cc(-c2cnc3c(Nc4sncc4C4CCN(S(C)(=O)=O)C4)nc(CCCN)cn23)cn1` (stereo not drawn), for which the IC50 on recombinant His-CHK1 turned out to be 8 nM.
As for `Cc1cc(Nc2nc(C3=CCCNC3)cn3c(-c4cnn(C)c4)cnc23)sc1S(=O)(=O)N(C)C`, the IC50 was found to be 5200 nM at Cyclin E/CDK2 (read-out: CDK2 IC50) and 7 nM at recombinant His-CHK1.
On the same counts, the results for `CC(C)c1cnsc1Nc1nc(CCN)cn2c(-c3cnn(C)c3)cnc12` are 13 nM and 6380 nM.
The like results for `Cn1cc(-c2cnc3c(Nc4sncc4C(C)(C)C)nc(C4=CCCNC4)cn23)cn1` were, in that order, 13700 nM and 16 nM.
The like results for `CC(C)c1cnsc1Nc1nc(C2=CCCNC2)cn2c(-c3cnn(C)c3)cnc12` were, in that order, 4210 nM and 6 nM.
